Measured values as given in US20240025913A1, “TERTIARY CARBOXAMIDE COMPOUNDS” (Vivace Therapeutics, Inc., priority 2020, published 2024).

Test system: 8×TBD luciferase reporter in HEK293T cells
Test: YAP Reporter Assay (firefly luciferase)
Format: cell-based
Details: Homo sapiens, HEK-293T; HEK293T cells stably transfected with 8×TBD luciferase reporter and pRLTK; 24-hr incubation; starting from 3 μM, 1:3 dilution, 10 points
Method: HEK293T cells stably transfected with 8×TBD luciferase reporter and pRLTK in 384-well plates were treated with the test compounds, starting from 3 μM (final concentration in assay plate), 1:3 dilution, and 10 points in quadruplicates. Post 24-hr incubation with compounds at 37° C. and 5% CO2, cells were lysed and 8×TBD-driven firefly luciferase and control TK-driven renilla luciferase activities were measured using Promega Dual-Luciferase Reporter Assay System.
Reagents: The reagents used for this study are: DMEM: Invitrogen #11960077, Dual-Glo Luciferase Assay System: Promega-E2980, Puromycin Dihydrochloride: Invitrogen-A1113803, 384-well plate: PerkinElmer-6007480, L-GLUTAMINE: Invitrogen-25030164, Hygromycin B: Invitrogen-10687010, and Penicillin-Streptomycin: Merk-TMS-AB2-C
Media: The media used for this assay were: Culture Medium: DMEM+1 ug/mL puromycin+200 ug/mL hygromycin (with 10% FBS+1 mM L-glutamine); and Assay Medium: DMEM (with 10% FBS+1 mM L-glutamine+1×P/S).
Cell Plating: The appropriate media was warmed at 37° C. by water bath: Culture Medium, Assay Medium, 1*D-PBS, 0.05% trypsin-EDTA. The cells were trypsinized after removing all media, then washed with 1*sterile D-PBS and then with 2 ml 0.05% trypsin-EDTA. The cells were then incubated at RT for one minute. Then 10 ml/75 cm2 flask Assay Medium was added to each flask. Using a 10 ml pipette, the cells were then gently resuspended in the media, until the clumps completely disappeared. The cells were then transferred into 50 ml centrifuge tubes and were centrifuged at 800 rpm for 5 mins. The medium was removed and the cells were resuspended with Assay Medium. An aliquot of cells was used to count the cell density (cells/ml). The cell suspension was then diluted with Assay Medium to a concentration of 6×10^4 cells/ml. 50 ul cells suspension was then plated to 384-well plate (PerkinElmer-6007480), 3×10^3 cells/well and the cells were incubated in an incubator at 37° C., 5% CO2.
Compound Treatment: In the afternoon (incubation of the plate with 3-4 hrs), the test compounds were added by Echo, starting from 3 uM (final concentration in the assay plate), 1:3 dilution, 10 points, quadruplicates. The plate was placed at 37° C., 5% CO2 incubator for 24 hrs.
Detection: The Dual-Glo Luciferase Reagent was prepared by transferring the contents of one bottle of Dual-Glo Luciferase Buffer to one bottle of Dual-Glo Luciferase Substrate to create the Dual-G Luciferase Reagent. Mixing was performed by inversion until the substrate was thoroughly dissolved. After mixing, the reagent was aliquoted into 15 ml tubes. In the afternoon (24 hrs post compound treatment), the DMEM+ medium in the 384 well plates were aspirated by Microplate Washer.
Measuring firefly luciferase activity: 20 ul Dual-Glo Luciferase Reagent was added to the 384-well plates. The plates were protected from light to prevent interference with the assay. The plates were shaken for […] followed centrifuging plates at 1000 rpm for 30 seconds. After waiting at least 10 minutes, the firefly luminescence was measured by Envision.
Measuring renilla luciferase activity: 20 ul Stop-Glo Reagent was added to the 384-well plates. The plates were shaken for […] and then centrifuged at 1000 rpm for 30 seconds. After waiting at least 10 minutes, the renilla luminescence was measured by Envision.
Compound IC50 and maximum inhibition on the firefly luciferase and renilla luciferase activities were reported separately.

Row | SMILES | IC50
1 | O=C(c1ccc2c(Oc3ccc(C(F)(F)F)cc3)cccc2c1)N1CC(NCC(F)F)C1 [Compound 32, (3-((2,2-Difluoroethyl)amino)azetidin-1-yl)(5-(4-(trifluoromethyl)phenoxy)naphthalen-2-yl)methanone] | 100 to 1000 nM
2 | CS(=O)(=O)NCC1CN(C(=O)c2ccc3c(Oc4ccc(C(F)(F)F)cc4)cccc3c2)C1 [Compound 17, N-((1-(5-(4-(trifluoromethyl)phenoxy)-2-naphthoyl)azetidin-3-yl)methyl)methanesulfonamide] | ≤ 100 nM
3 | CC(C)NCC1CN(C(=O)c2ccc3c(Oc4ccc(C(F)(F)F)cc4)cccc3c2)C1 [Compound 34, (3-((Isopropylamino)methyl)azetidin-1-yl)(5-(4-(trifluoromethyl)phenoxy)naphthalen-2-yl)methanone] | 100 to 1000 nM
4 | CCN1CC2(C1)CN(C(=O)c1ccc3c(Oc4ccc(C(F)(F)F)cc4)cccc3c1)C2 [Compound 19, (6-Ethyl-2,6-diazaspiro[3.3]heptan-2-yl)(5-(4-(trifluoromethyl)phenoxy)naphthalen-2-yl)methanone] | 100 to 1000 nM
5 | CC(=O)NC1CN(C(=O)c2ccc3c(Oc4ccc(C(F)(F)F)cc4)cccc3c2)C1 [Compound 1, N-(1-(5-(4-(Trifluoromethyl)phenoxy)-2-naphthoyl)azetidin-3-yl)acetamide] | ≤ 100 nM
6 | O=C(c1ccc2c(Oc3ccc(C(F)(F)F)cc3)cccc2c1)N1CC(Nc2ccccn2)C1 [Compound 39, (3-(Pyridin-2-ylamino)azetidin-1-yl)(5-(4-(trifluoromethyl)phenoxy)naphthalen-2-yl)methanone] | 100 to 1000 nM
7 | CC(=O)NCC1CN(C(=O)c2ccc3c(Oc4ccc(C(F)(F)F)cc4)cccc3c2)C1 [Compound 16, N-((1-(5-(4-(trifluoromethyl)phenoxy)-2-naphthoyl)azetidin-3-yl)methyl)acetamide] | ≤ 100 nM
8 | CCNCC1CN(C(=O)c2ccc3c(Oc4ccc(C(F)(F)F)cc4)cccc3c2)C1 [Compound 33, (3-((Ethylamino)methyl)azetidin-1-yl)(5-(4-(trifluoromethyl)phenoxy)naphthalen-2-yl)methanone] | 100 to 1000 nM
9 | CC(C)NC1CN(C(=O)c2ccc3c(Oc4ccc(C(F)(F)F)cc4)cccc3c2)C1 [Compound 28, (3-(Isopropylamino)azetidin-1-yl)(5-(4-(trifluoromethyl)phenoxy)naphthalen-2-yl)methanone] | ≤ 100 nM
10 | O=C(c1ccc2c(Oc3ccc(C(F)(F)F)cc3)cccc2c1)N1CC(CO)C1 [Compound 13, (3-(Hydroxymethyl)azetidin-1-yl)(5-(4-(trifluoromethyl)phenoxy)naphthalen-2-yl)methanone] | ≤ 100 nM
11 | CN(C)C(=O)c1ccc2c(Oc3ccc(C(F)(F)F)cc3)cccc2c1 [Compound 42, N,N-dimethyl-5-(4-(trifluoromethyl)phenoxy)naphthalene-2-carboxamide] | 100 to 1000 nM
12 | CNC1CN(C(=O)c2ccc3c(Oc4ccc(C(F)(F)F)cc4)cccc3c2)C1 [Compound 26, (3-(Methylamino)azetidin-1-yl)(5-(4-(trifluoromethyl)phenoxy)naphthalen-2-yl)methanone] | 100 to 1000 nM
13 | NCC1CCCN(C(=O)c2ccc3c(Oc4ccc(C(F)(F)F)cc4)cccc3c2)C1 (stereo not drawn) [Compound 9, (3-(Aminomethyl)piperidin-1-yl)(5-(4-(trifluoromethyl)phenoxy)naphthalen-2-yl)methanone] | 100 to 1000 nM
14 | O=C(c1ccc2c(Oc3ccc(C(F)(F)F)cc3)cccc2c1)N1CC2(CN(CCF)C2)C1 [Compound 23, (6-(2-Fluoroethyl)-2,6-diazaspiro[3.3]heptan-2-yl)(5-(4-(trifluoromethyl)phenoxy)naphthalen-2-yl)methanone] | 100 to 1000 nM
15 | NCC1CCN(C(=O)c2ccc3c(Oc4ccc(C(F)(F)F)cc4)cccc3c2)C1 (stereo not drawn) [Compound 8, (3-(Aminomethyl)pyrrolidin-1-yl)(5-(4-(trifluoromethyl)phenoxy)naphthalen-2-yl)methanone] | ≤ 100 nM
16 | NC1CN(C(=O)c2ccc3c(Oc4ccc(C(F)(F)F)cc4)cccc3c2)C1 [Compound 1A, (3-aminoazetidin-1-yl)(5-(4-(trifluoromethyl)phenoxy)naphthalen-2-yl)methanone] | ≤ 100 nM
17 | COCCNC1CN(C(=O)c2ccc3c(Oc4ccc(C(F)(F)F)cc4)cccc3c2)C1 [Compound 29, (3-((2-Methoxyethyl)amino)azetidin-1-yl)(5-(4-(trifluoromethyl)phenoxy)naphthalen-2-yl)methanone] | 100 to 1000 nM
18 | CN(C#N)C(=O)c1ccc2c(Oc3ccc(C(F)(F)F)cc3)cccc2c1 [Compound 43, N-cyano-N-methyl-5-(4-(trifluoromethyl)phenoxy)-2-naphthamide] | ≤ 100 nM
19 | O=C(c1ccc2c(Oc3ccc(C(F)(F)F)cc3)cccc2c1)N1CC2(CNC2)C1 [Compound 11, (2,6-Diazaspiro[3.3]heptan-2-yl)(5-(4-(trifluoromethyl)phenoxy)naphthalen-2-yl)methanone] | 100 to 1000 nM
20 | CN(C)CC1CN(C(=O)c2ccc3c(Oc4ccc(C(F)(F)F)cc4)cccc3c2)C1 [Compound 14, (3-((Dimethylamino)methyl)azetidin-1-yl)(5-(4-(trifluoromethyl)phenoxy)naphthalen-2-yl)methanone] | 100 to 1000 nM
21 | CCNC1CN(C(=O)c2ccc3c(Oc4ccc(C(F)(F)F)cc4)cccc3c2)C1 [Compound 27, (3-(Ethylamino)azetidin-1-yl)(5-(4-(trifluoromethyl)phenoxy)naphthalen-2-yl)methanone] | 100 to 1000 nM
22 | NC1CCN(C(=O)c2ccc3c(Oc4ccc(C(F)(F)F)cc4)cccc3c2)C1 (stereo not drawn) [Compound 3, (3-Aminopyrrolidin-1-yl)(5-(4-(trifluoromethyl)phenoxy)naphthalen-2-yl)methanone] | 100 to 1000 nM
23 | O=C(c1ccc2c(Oc3ccc(C(F)(F)F)cc3)cccc2c1)N1CC(CNCCO)C1 [Compound 37, (3-(((2-Hydroxyethyl)amino)methyl)azetidin-1-yl)(5-(4-(trifluoromethyl)phenoxy)naphthalen-2-yl)methanone] | ≤ 100 nM
24 | CN(C)C1CN(C(=O)c2ccc3c(Oc4ccc(C(F)(F)F)cc4)cccc3c2)C1 [Compound 12, (3-(Dimethylamino)azetidin-1-yl)(5-(4-(trifluoromethyl)phenoxy)naphthalen-2-yl)methanone] | 1000 to 3000 nM
25 | O=C(c1ccc2c(Oc3ccc(C(F)(F)F)cc3)cccc2c1)N1CC(CNCCF)C1 [Compound 36, (3-(((2-Fluoroethyl)amino)methyl)azetidin-1-yl)(5-(4-(trifluoromethyl)phenoxy)naphthalen-2-yl)methanone] | 100 to 1000 nM
26 | NC1CCN(C(=O)c2ccc3c(Oc4ccc(C(F)(F)F)cc4)cccc3c2)CC1 [Compound 4, (4-Aminopiperidin-1-yl)(5-(4-(trifluoromethyl)phenoxy)naphthalen-2-yl)methanone] | ≤ 100 nM
27 | O=C(c1ccc2c(Oc3ccc(C(F)(F)F)cc3)cccc2c1)N1CC(CNCC(F)F)C1 [Compound 38, (3-(((2,2-Fifluoroethyl)amino)methyl)azetidin-1-yl)(5-(4-(trifluoromethyl)phenoxy)naphthalen-2-yl)methanone] | ≤ 100 nM
